Measurements published in patent publication US20240299568A1, “BONE-SPECIFIC DELIVERY OF POLYPEPTIDES” (William Marsh Rice University, priority 2021, published 2024).

System: MDA-MB-361 cells
Assay: MDA-MB-361 bone micrometastasis xenograft (IIA injection)
[1] = significance vs PBS group, end of experiment

## NCCCC(O)(P(=O)(O)O)P(=O)(O)O [ALN, Alendronate]
82 days after tumor implantation
  bone mass loss of femurs (microCT): significant losses of bone mass
ALN 10 μg/kg, Tras, Tras-ALN 1 mg/kg, retro-orbital twice a week
  development of micrometastases / lesions (BLI imaging): accumulated rapidly
H&E bone sections
  tumor burden, histomorphometric analysis of tibiae and femurs: high tumor burdens
Significance vs PBS group, BLI of day 87/BLI of day 6, two-way ANOVA
  BLI Fold-increase: NS (NS represents P > 0.05)
Significance vs PBS group, TRAP-stained tibia/femur sections, end of experiment
  Osteoclast activity Osteoclast number: * (* P < 0.05)
[1]
  Osteoclast activity Serum Calcium: NS (NS represents P > 0.05)
  Osteoclast activity Serum TRACP 5b: NS (NS represents P > 0.05)
Significance vs PBS group, endpoint BLI intensity over 10^7, log-rank test
  Survival: NS (NS represents P > 0.05)
Significance vs PBS group, whole-body BLI over the course of the experiment, two-way ANOVA
  BLI Progression: NS (NS represents P > 0.05)
